Data set [1] concerns AKR1B10 (ARL-1) secretion. The experiment in a line: ARL-1 secretion into culture medium (sandwich ELISA and Western blot). Type of data set: cell-based, human. On the procedure: Soluble proteins are secreted by either the classical or nonclassical pathway (Nickel et al., Eur J. Biochem. 270: 2109-2119, 2003). In the classical protein secretion pathway, a secretory protein is translocated by an N-terminal signal peptide into endoplasmic reticulum and Golgi complex concomitant with protein synthesis. Thus, this pathway is affected by inhibitors of protein synthesis and protein transport from ER to Golgi. […] HCT-8 cells (1.25×10^5) were cultured in 12-well plates overnight and the next day the cells were exposed to 15 μg/ml of protein synthesis inhibitor cycloheximide in fresh serum-free medium. Medium was collected at different time points for sandwich ELISA and Western blot analysis. […] Next, the effects of an ER-Golgi pathway inhibitor were examined. HCT-8 and NCI-460 cells (1.25×10^5) were cultured in 12-well plates overnight and then exposed to an ER-Golgi protein transport inhibitor brefeldin A at 0, 2, or 10 μg/ml in fresh serum-free medium for 6 hour. Medium was collected for sandwich ELISA and Western blot analysis. […] Statistic analysis was performed using Student's t test or Chi square tests, as appropriate, with INSTAT statistical analysis package (Graph Pad Software, CA), for statistical significance at p<0.05.
At 30 min before harvest, ATP (1 mM) was added and the medium was subjected to sandwich ELISA and Western blot analysis. In addition, HCT-8 cells (1.25×10^5) were seeded into 12-well plates and exposed to Ca^2+ ions (100 μM) or ionomycin at 1 or 2 μM in serum-free medium for 30 min and the medium was harvested for sandwich ELISA and Western blot analysis. […]
Proteins that are secreted via the lysosome-mediated pathway are often translocated into lysosomes by the ABC transporters (Hamon et al., Blood 90: 2911-2915, 1997). To understand the transmembrane mechanism of ARL-1, HCT-8 cells (1.25×10^5) were cultured in 12-well plates overnight and then exposed to ABC transporter inhibitor GLIB (glibenclamide) or DIDS (4,4′-diisothiocyanatostilbene-2,2′-disulfonic acid) (Sigma, Mo.) in serum-free medium for 2 hours. ATP (1 mM) was added 30 min before harvest. Medium and cells were collected for sandwich ELISA and Western blot analysis.

For the next data set, the system named is HCT-8 cells. The data set is described as follows: Mechanism of acrolein-induced cell death in HCT-8 cells with ARL-1 knockdown (flow cytometry, LDH efflux). Type of data set: cell-based, human. Conditions: 25 μM. On the procedure: The mechanisms of cell death induced by reactive carbonyls were investigated by flow cytometry and lactate dehydrogenase leakage assay. For flow cytometry assay, cells (with ARL-1 knockdown) were incubated with acrolein (25 μM) for 24 hours. After medium was gently removed, cells were washed with cold PBS and trypsinized. Cells in PBS and trypsin digestion were pooled, washed with PBS twice at 1200 rpm for 10 min, and then subjected to immediate propidium iodide (PI) and annexin V-FITC staining for 10 minutes in the dark as set forth in Yuan et al. (2004, Oncogene 23: 5843-5852, 2004). FACScan analysis was performed using a FACScan cytometer (Becton Dickinson, Calif.).
For lactate dehydrogenase (LDH) efflux assays, cells were plated at 5×10^4 cells/well in 12-well plates and exposed to 25 μM of acrolein for 12 hours. Medium was collected and cells were lysed for 10 min in 0.5% (v/v) Triton X-100 in 0.1 M potassium phosphate buffer (pH 7.4). Supernatants were collected by centrifugation at 10,000×g for 5 min. LDH activity in medium and cell lysates was measured using LDH assay kit (Roche, Ind.). […] Absorbance at 490 nm was read in a microplate reader (Bio-Rad, CA), with 650 nm as a reference wavelength. LDH release was calculated as: LDH release (%)=[LDH in medium/(LDH in medium+LDH in cell lysate)]×100 (Koh and Choi, 1987, J Neurosci Methods 20: 83-90).

Setting [2] is: HCT-8 cells, serum-free medium 30 min, Ca2+ ions 100 μM, ionomycin 1 or 2 μM.
Where [3] appears, read: HCT-8 cells, serum-free medium, ATP 1 mM 30 min before harvest, Mg2+ 2 mM and/or EDTA 1 mM for 2 hours.
Where [4] appears, read: HCT-8 cells, serum-free medium 2 hours, ATP 1 mM added 30 min before harvest.

Results on ten molecules are retold here after US8685666B2, “ARL-1 specific antibodies and uses thereof” (The Board of Trustees of Southern Illinois University, priority 2007, dated 2014).

Entries after “also recorded” stand apart in the source; their conditions may differ.

On to `Nc1ncnc2c1ncn2[C@@H]1O[C@H](COP(=O)(O)OP(=O)(O)OP(=O)(O)O)[C@@H](O)[C@H]1O` [ATP], for which the ARL-1 secretion result in data set [1] (setting [2]) is “synergistic role in Ca^2+-mediated stimulation”; in data set [1] (setting [3]) it was “significantly stimulated”. `[Ca+2]` [Ca^2+ ions]: the ARL-1 secretion entry in data set [1] (setting [2]) was “significantly stimulated”. Turning to `O=S(=O)(O)c1cc(N=C=S)ccc1C=Cc1ccc(N=C=S)cc1S(=O)(=O)O` [DIDS, 4,4′-diisothiocyanatostilbene-2,2′-disulfonic acid], the ARL-1 secretion entry in data set [1] (setting [4]) is recorded as “suppressed”. Regarding `COc1ccc(Cl)cc1C(=O)NCCc1ccc(S(=O)(=O)NC(=O)NC2CCCCC2)cc1` [GLIB, glibenclamide], the ARL-1 secretion result in data set [1] (setting [4]) is reported as “suppressed”. As to `[Mg+2]` [Mg^2+], in data set [1] (setting [3]), the ARL-1 secretion result was “blocked”.

`Cl.N` [NH4Cl]: the ARL-1 secretion entry in data set [1] (50 mM added simultaneously with the fresh serum-free medium) was “increased”. The “ARL-1 in freshly fed serum-free medium compared with control” value in data set [1] (50 mM for 2 hours before switch to fresh serum-free medium) is on record as “significant decrease”.

For the molecule `C=CC=O` [acrolein], in the data set on HCT-8 cells, the “features of induced cell death” value is “LDH efflux and annexin V staining, a characteristic of oncosis”.

As to `C[C@H]1CCC/C=C/[C@@H]2C[C@H](O)C[C@H]2[C@H](O)/C=C/C(=O)O1` [brefeldin A], the ARL-1 secretion result in data set [1] (HCT-8 and NCI-460 cells, 0, 2, or 10 μg/ml, serum-free medium, 6 hour) is given as “not affected; also recorded: did not significantly affect secretion”. Regarding `C[C@@H]1C[C@@H]([C@H](O)CC2CC(=O)NC(=O)C2)C(=O)[C@@H](C)C1` [cycloheximide], in data set [1] (HCT-8 cells, 15 μg/ml, serum-free medium, up to 8 hours), the ARL-1 secretion entry is “not affected; also recorded: did not significantly affect secretion”.

Regarding `C[C@H](CCC(=O)O)C[C@H](C)C[C@H](C)C(=O)/C=C(\O)[C@H](C)C[C@H](C)C/C=C/[C@@H](C)[C@@H](O)[C@@H](C)[C@@H](O)C[C@@H]1CC[C@@](C)([C@H]2CC[C@@](C)([C@@H](C)O)O2)O1` [ionomycin], in data set [1] (setting [2]), the ARL-1 secretion result is “significantly stimulated”.
